± gives the expanded uncertainty stated by the source.
Legend:
[1] = 100 kPa, Liquid; for speed of sound: Frequency=3 MHz, Linear variable-path acoustic interferometer; for mass density: Pycnometric method
[2] = xn = mol fraction of the nth substance listed; conditions: 100 kPa, Liquid, x1 = 1; for speed of sound: Frequency=3 MHz, Linear variable-path acoustic interferometer; for mass density: Pycnometric method

C=C(C)C(=O)OC [methyl methacrylate]
[1]
Conditions | mass density [kg/m3] | speed of sound [m/s]
293.15 K | 943.38 ± 1 | 1200.5 ± 1.6
298.15 K | 937.64 ± 1 | 1183.6 ± 1.6
303.15 K | 931.9 ± 1 | 1168.5 ± 1.6
308.15 K | 926.16 ± 1 | 1152.6 ± 1.6
313.15 K | 920.42 ± 1 | 1135.4 ± 1.6
318.15 K | 914.67 ± 1 | 1118.3 ± 1.6

CC#N [acetonitrile]
[1]
Conditions | mass density [kg/m3] | speed of sound [m/s]
293.15 K | 782.12 ± 1 | 1304.7 ± 1.7
298.15 K | 776.82 ± 1 | 1282.8 ± 1.6
303.15 K | 771.52 ± 1 | 1263.9 ± 1.6
308.15 K | 766.21 ± 1 | 1245 ± 1.6
313.15 K | 760.9 ± 1 | 1226.5 ± 1.6
318.15 K | 755.59 ± 1 | 1207.9 ± 1.6

CC#N [acetonitrile] + C=C(C)C(=O)OCCCC
[2]
Conditions | mass density [kg/m3] | speed of sound [m/s]
293.15 K | 782.12 ± 1 | 1304.7 ± 1.7
298.15 K | 776.82 ± 1 | 1282.8 ± 1.6
303.15 K | 771.52 ± 1 | 1263.9 ± 1.6
308.15 K | 766.21 ± 1 | 1245 ± 1.6
313.15 K | 760.9 ± 1 | 1226.5 ± 1.6
318.15 K | 755.59 ± 1 | 1207.9 ± 1.6

CC#N [acetonitrile] + C=C(C)C(=O)OC
[2]
Conditions | mass density [kg/m3] | speed of sound [m/s]
293.15 K | 782.12 ± 1 | 1304.7 ± 1.7
298.15 K | 776.82 ± 1 | 1282.8 ± 1.6
303.15 K | 771.52 ± 1 | 1263.9 ± 1.6
308.15 K | 766.21 ± 1 | 1245 ± 1.6
313.15 K | 760.9 ± 1 | 1226.5 ± 1.6
318.15 K | 755.59 ± 1 | 1207.9 ± 1.6

CC#N [acetonitrile] + C=C(C)C(=O)OCC
[2]
Conditions | mass density [kg/m3] | speed of sound [m/s]
293.15 K | 782.12 ± 1 | 1304.7 ± 1.7
298.15 K | 776.82 ± 1 | 1282.8 ± 1.6
303.15 K | 771.52 ± 1 | 1263.9 ± 1.6
308.15 K | 766.21 ± 1 | 1245 ± 1.6
313.15 K | 760.9 ± 1 | 1226.5 ± 1.6
318.15 K | 755.59 ± 1 | 1207.9 ± 1.6

C=C(C)C(=O)OCCCC [butyl 2-methyl-2-propenoate]
[1]
Conditions | mass density [kg/m3] | speed of sound [m/s]
293.15 K | 895.19 ± 1 | 1241.7 ± 1.7
298.15 K | 890.48 ± 1 | 1222.1 ± 1.7
303.15 K | 885.78 ± 1 | 1202.4 ± 1.7
308.15 K | 881.07 ± 1 | 1183 ± 1.7
313.15 K | 876.35 ± 1 | 1163.8 ± 1.7
318.15 K | 871.64 ± 1 | 1145.7 ± 1.7

C=C(C)C(=O)OCC [ethyl 2-methylpropenoate]
[1]
Conditions | mass density [kg/m3] | speed of sound [m/s]
293.15 K | 912.3 ± 1 | 1196.8 ± 1.6
298.15 K | 907.18 ± 1 | 1176.9 ± 1.6
303.15 K | 902.06 ± 1 | 1157.6 ± 1.6
308.15 K | 896.94 ± 1 | 1139.4 ± 1.6
313.15 K | 891.83 ± 1 | 1121.5 ± 1.6
318.15 K | 886.71 ± 1 | 1104.6 ± 1.6

Reference: the NIST ThermoML archive (doi:10.1016/j.jct.2018.03.013)
